# Tests used:
# [1] = system: cytokines and ISGs (ISG15, MX1, OAS1); assay: Phase 1 single oral dose pharmacodynamics (serum cytokines, whole blood ISGs) in healthy adults; assay type: in vivo, human
# Experimental: IFN-α was assessed by an enzyme-linked immunosorbent assay; 13 other cytokines (granulocyte colony stimulating factor [GCSF], granulocyte macrophage colony stimulating factor [GMCSF], IFN-γ, IFN-γ-induced protein 10 [IP-10], interleukin [IL] 1β, IL-1 receptor antagonist [IL-1 RA], IL-10, IL-12 subunit P40, IL-6, IL-8, macrophage inflammatory protein 1β [MIP-1β], monocyte chemotactic protein 1 [MCP-1], and tumour necrosis factor [TNF]) were analysed by the appropriate Luminex assays. ISG expression analysis was conducted for three genes, ISG15, MX1 and OAS1 using quantitative polymerase chain reaction. Descriptive statistics were used to summarise PD parameters over time, and relative fold-changes from baseline values were calculated. Serum levels of IFN-α were measured by ELISA. Serum levels of IP-10, IFN-γ, TNF-α, IL-12 (subunit P40), IL-6, IL-1β, IL-1RA, IL-18, MCP-1, MIP-1β, G-CSF, GM-CSF, IL-10, IL-15 were measured by Luminex xMAP technology. The LLOQ for IFN-α was determined at 12.5 pg/mL and at 25 pg/mL for all other cytokines measured. Fold changes for each of the cytokines were calculated compared to predose values or LLOQ-1 values if predose values were below LLOQ. IFN-stimulated gene (ISG) expression analysis was conducted for 3 genes, ISG15, MX1, and OAS1, using quantitative polymerase chain reaction (qPCR) on collected whole blood samples. For the ISGs, relative fold changes from baseline were calculated according to the delta delta Cycle threshold (Ct) method (2^[Delta Delta Ct]). Assessments were done for Part 1 predose and postdose: 1.5 hours, 6 hours, 12 hours (Day 1), 24 hours (day 2), 48 hours (Day 3), 96 hours (Day 5), follow-up Week 2. For the Part 2, assessments were done predose and post the first and fourth dose: 2 hours, 4 hours, 12 hours, 24 hours, 48 hours, 96 hours and one week follow-up; and post the second and third doses: 12 hours and 48 hours.
# [2] = cardiovascular safety pharmacology in monkeys; assay type: in vivo; settings: secondary to an increase in body temperature
# Description: Exposure increased more than dose-proportionally at low doses. Variability in exposure was high. • In vitro plasma protein binding was between 79.6% and 94.2% in animals and humans. Volume of distribution after intravenous dosing was high. […] Main metabolic pathways were oxygenation, hydrogenation, dehydrogenation, dealkylation, acetylation, glucuronidation, and/or glutathione conjugation. • In rats, >80% of drug-related material was found in feces, 11% to 20% in bile, and <4% in urine. […] There were no effects on embryofetal development up to 1 mg/kg/dose in rats and 30 mg/kg/dose in rabbits.
# [3] = single dose 0.6 mg, 12 hours post dosing
smiles,measurement,setting,value
CCCCOc1nc(N)c2[nH]cc(Cc3ccc(CN4CCCC4)cc3)c2n1 [Compound 4],"number of the 14 cytokines evaluated that increased ≥2-fold versus baseline (IFN-α, IP-10, IL-1 RA, MCP-1, IL-6)",[1]; single dose,5
same,time within which cytokine levels and ISG expression peaked,[1]; single dose,12 to 24 h
same,induction of ISGs or cytokines,[1]; single dose 0.2 mg,No relevant induction of ISGs or cytokines
same,participants with ≥2 relative fold increase in ISG15 expression from baseline in the first 96 hours,[1]; single dose 0.2 mg fasted,0 n (%)
same,participants with ≥2 relative fold increase in MX1 expression from baseline in the first 96 hours,[1]; single dose 0.2 mg fasted,1 (20.0%) n (%)
same,participants with ≥2 relative fold increase in OAS1 expression from baseline in the first 96 hours,[1]; single dose 0.2 mg fasted,0 n (%)
same,subjects with ≥2-fold change from baseline in GCSF within 96 hours,[1]; single dose 0.2 mg fasted,0 n (%)
same,subjects with ≥2-fold change from baseline in GMCSF within 96 hours,[1]; single dose 0.2 mg fasted,0 n (%)
same,subjects with ≥2-fold change from baseline in IFN-α within 96 hours,[1]; single dose 0.2 mg fasted,0 n (%)
same,subjects with ≥2-fold change from baseline in IFN-γ within 96 hours,[1]; single dose 0.2 mg fasted,0 n (%)
same,subjects with ≥2-fold change from baseline in IL-1RA within 96 hours,[1]; single dose 0.2 mg fasted,0 n (%)
same,subjects with ≥2-fold change from baseline in IL-1β within 96 hours,[1]; single dose 0.2 mg fasted,0 n (%)
same,subjects with ≥2-fold change from baseline in IL-6 within 96 hours,[1]; single dose 0.2 mg fasted,1 (20.0%) n (%)
same,subjects with ≥2-fold change from baseline in IL-8 within 96 hours,[1]; single dose 0.2 mg fasted,0 n (%)
same,subjects with ≥2-fold change from baseline in IL-10 within 96 hours,[1]; single dose 0.2 mg fasted,0 n (%)
same,subjects with ≥2-fold change from baseline in IL-12 subunit P40 within 96 hours,[1]; single dose 0.2 mg fasted,0 n (%)
same,subjects with ≥2-fold change from baseline in IP-10 within 96 hours,[1]; single dose 0.2 mg fasted,0 n (%)
same,subjects with ≥2-fold change from baseline in MCP-1 within 96 hours,[1]; single dose 0.2 mg fasted,0 n (%)
same,subjects with ≥2-fold change from baseline in MIP-1β within 96 hours,[1]; single dose 0.2 mg fasted,0 n (%)
same,subjects with ≥2-fold change from baseline in TNF-α within 96 hours,[1]; single dose 0.2 mg fasted,0 n (%)
same,treated subjects with ≥2-fold increase from baseline for all 3 ISGs within the first 96 hours,[1]; single dose 0.6 mg,Five of 6
same,participants with ≥2 relative fold increase in ISG15 expression from baseline in the first 96 hours,[1]; single dose 0.6 mg fasted,5 (83.3%) n (%)
same,participants with ≥2 relative fold increase in MX1 expression from baseline in the first 96 hours,[1]; single dose 0.6 mg fasted,5 (83.3%) n (%)
same,participants with ≥2 relative fold increase in OAS1 expression from baseline in the first 96 hours,[1]; single dose 0.6 mg fasted,5 (83.3%) n (%)
same,subjects with ≥2-fold change from baseline in GCSF within 96 hours,[1]; single dose 0.6 mg fasted,1 (16.7%) n (%)
same,subjects with ≥2-fold change from baseline in GMCSF within 96 hours,[1]; single dose 0.6 mg fasted,0 n (%)
same,subjects with ≥2-fold change from baseline in IFN-α within 96 hours,[1]; single dose 0.6 mg fasted,0 n (%)
same,subjects with ≥2-fold change from baseline in IFN-γ within 96 hours,[1]; single dose 0.6 mg fasted,0 n (%)
same,subjects with ≥2-fold change from baseline in IL-1RA within 96 hours,[1]; single dose 0.6 mg fasted,0 n (%)
same,subjects with ≥2-fold change from baseline in IL-1β within 96 hours,[1]; single dose 0.6 mg fasted,0 n (%)
same,subjects with ≥2-fold change from baseline in IL-6 within 96 hours,[1]; single dose 0.6 mg fasted,0 n (%)
same,subjects with ≥2-fold change from baseline in IL-8 within 96 hours,[1]; single dose 0.6 mg fasted,0 n (%)
same,subjects with ≥2-fold change from baseline in IL-10 within 96 hours,[1]; single dose 0.6 mg fasted,0 n (%)
same,subjects with ≥2-fold change from baseline in IL-12 subunit P40 within 96 hours,[1]; single dose 0.6 mg fasted,0 n (%)
same,subjects with ≥2-fold change from baseline in MIP-1β within 96 hours,[1]; single dose 0.6 mg fasted,0 n (%)
same,subjects with ≥2-fold change from baseline in TNF-α within 96 hours,[1]; single dose 0.6 mg fasted,0 n (%)
same,maximum concentration of IP-10,[1]; [3],"1,322.0 pg/mL"
same,maximum concentration of MCP-1,[1]; [3],878.2 pg/mL
same,"increased expression of cytokines and ISGs, fed versus fasted state",[1]; single dose 1.25 mg,less frequently observed in the 1.25 mg fed state than in the fasted state
same,treated subjects with ≥2-fold increase from baseline for all 3 ISGs within the first 96 hours,[1]; single dose 1.25 mg,all treated subjects
same,participants with ≥2 relative fold increase in ISG15 expression from baseline in the first 96 hours,[1]; single dose 1.25 mg fasted,8 (100%) n (%)
same,participants with ≥2 relative fold increase in MX1 expression from baseline in the first 96 hours,[1]; single dose 1.25 mg fasted,8 (100%) n (%)
same,participants with ≥2 relative fold increase in OAS1 expression from baseline in the first 96 hours,[1]; single dose 1.25 mg fasted,8 (100%) n (%)
same,subjects with IFN-α levels 100 pg/mL coinciding with flu-like AEs and low lymphocytes,[1]; single dose 1.25 mg fasted,3 of 8
same,subjects with ≥2-fold change from baseline in GCSF within 96 hours,[1]; single dose 1.25 mg fasted,1 (12.5%) n (%)
same,subjects with ≥2-fold change from baseline in GMCSF within 96 hours,[1]; single dose 1.25 mg fasted,0 n (%)
same,subjects with ≥2-fold change from baseline in IFN-γ within 96 hours,[1]; single dose 1.25 mg fasted,2 (25.0%) n (%)
same,subjects with ≥2-fold change from baseline in IL-1β within 96 hours,[1]; single dose 1.25 mg fasted,0 n (%)
same,subjects with ≥2-fold change from baseline in IL-6 within 96 hours,[1]; single dose 1.25 mg fasted,1 (12.5%) n (%)
same,subjects with ≥2-fold change from baseline in IL-8 within 96 hours,[1]; single dose 1.25 mg fasted,0 n (%)
same,subjects with ≥2-fold change from baseline in IL-10 within 96 hours,[1]; single dose 1.25 mg fasted,0 n (%)
same,subjects with ≥2-fold change from baseline in IL-12 subunit P40 within 96 hours,[1]; single dose 1.25 mg fasted,0 n (%)
same,subjects with ≥2-fold change from baseline in MIP-1β within 96 hours,[1]; single dose 1.25 mg fasted,0 n (%)
same,subjects with ≥2-fold change from baseline in TNF-α within 96 hours,[1]; single dose 1.25 mg fasted,0 n (%)
same,treated females with 2-fold increase in IFN-α,[1]; single dose 1.25 mg fasted,2 of the 3
same,treated male subjects with 2-fold increase in IFN-α,[1]; single dose 1.25 mg fasted,2 out of 5
same,"IFNα levels in subjects with increase, range","[1]; single dose 1.25 mg fasted, 4/8 subjects",63 to 533 pg/mL
same,increase in IFN-α in the fed state among the 3 subjects with increase in the fasted state,[1]; single dose 1.25 mg fed,none showed an increase in IFN-α in the fed state
same,treated male subjects with ≥2-fold increase in IFN-α,[1]; single dose 1.8 mg,1 of the 5
same,treated subjects with ≥2-fold increase from baseline for all 3 ISGs within the first 96 hours,[1]; single dose 1.8 mg,all treated subjects
same,participants with ≥2 relative fold increase in ISG15 expression from baseline in the first 96 hours,[1]; single dose 1.8 mg fasted,6 (100%) n (%)
same,participants with ≥2 relative fold increase in MX1 expression from baseline in the first 96 hours,[1]; single dose 1.8 mg fasted,6 (100%) n (%)
same,participants with ≥2 relative fold increase in OAS1 expression from baseline in the first 96 hours,[1]; single dose 1.8 mg fasted,6 (100%) n (%)
same,subjects with IFN-α levels 100 pg/mL coinciding with flu-like AEs and low lymphocytes,[1]; single dose 1.8 mg fasted,2 of 6
same,subjects with ≥2-fold change from baseline in GCSF within 96 hours,[1]; single dose 1.8 mg fasted,0 n (%)
same,subjects with ≥2-fold change from baseline in GMCSF within 96 hours,[1]; single dose 1.8 mg fasted,0 n (%)
same,subjects with ≥2-fold change from baseline in IFN-γ within 96 hours,[1]; single dose 1.8 mg fasted,2 (33.3%) n (%)
same,subjects with ≥2-fold change from baseline in IL-1β within 96 hours,[1]; single dose 1.8 mg fasted,0 n (%)
same,subjects with ≥2-fold change from baseline in IL-6 within 96 hours,[1]; single dose 1.8 mg fasted,1 (16.7%) n (%)
same,subjects with ≥2-fold change from baseline in IL-8 within 96 hours,[1]; single dose 1.8 mg fasted,0 n (%)
same,subjects with ≥2-fold change from baseline in IL-10 within 96 hours,[1]; single dose 1.8 mg fasted,0 n (%)
same,subjects with ≥2-fold change from baseline in IL-12 subunit P40 within 96 hours,[1]; single dose 1.8 mg fasted,0 n (%)
same,subjects with ≥2-fold change from baseline in MIP-1β within 96 hours,[1]; single dose 1.8 mg fasted,0 n (%)
same,subjects with ≥2-fold change from baseline in TNF-α within 96 hours,[1]; single dose 1.8 mg fasted,0 n (%)
same,time within which cytokine levels and ISG expression returned to baseline,"[1]; single dose, post-administration",48 to 96 h
same,time of return to baseline after dosing,[1]; two highest fasted dose groups,approximately 96 hours
same,heart rate and arterial blood pressure,[2],transient increase in heart rate and arterial blood pressure

# From US12263172B2, “Toll-like receptor agonists for use in the treatment of hepatitis b” (priority 2019, dated 2025)
